Like-named read-outs stand apart in the source and are kept apart here.
Test system: livers from treated male Sprague-Dawley rats
Method: Briefly, in vivo short-term repeat dose rat studies were conducted on over 580 test compounds, including marketed and withdrawn drugs, environmental and industrial toxicants, and standard biochemical reagents. Rats (three per group) were dosed daily at either a low or high dose. […] Animals were necropsied on days 0.25, 1, 3, and 5 or 7. Up to 13 tissues (e.g., liver, kidney, heart, bone marrow, blood, spleen, brain, intestine, glandular and nonglandular stomach, lung, muscle, and gonads) were collected for histopathological evaluation and microarray expression profiling on the Amersham CodeLink™ RU1 platform (also referred to herein as “CodeLink Uniset™ Rat 1 Bioarray”). In addition, a clinical pathology panel consisting of 37 clinical chemistry and hematology parameters was generated from blood samples collected on days 3 and 5.
The remaining 21 NGTC chemicals and 26 NC chemicals were reserved for independent validation of the signature. Each chemical was evaluated in a short term repeat dose in vivo study in male Sprague-Dawley rats (n=3/group). The livers from treated and control rats were collected after 1, 3 and 5 days of dosing and RNA was extracted for gene expression profiling. Gene expression changes in treated animals were compared to suitably matched controls and represented as average log10 ratios for each treatment group. Since the development of tumors is a long term multi-step process, the 100 training set chemicals were profiled at the latest time point in order to capture gene expression changes that were likely to be reflective of repeat dose treatment effects that contribute to carcinogenicity and not reflective of an initial stimulus following a single dose that may be transient in nature.
Male Sprague-Dawley (Crl:CD®(SD)(IGS)BR) rats (weight matched, 7 to 8 weeks of age and averaging 200 to 250 g) were purchased from Charles River Laboratories (Portage, Mich.) and housed individually in hanging, stainless steel, wire-bottom cages in a temperature (66-77° F.), light (12-hour dark/light cycle) and humidity (30-70%) controlled room. […] Housing and treatment of the animals were in accordance with regulations outlined in the USDA Animal Welfare Act (9 CFR Parts 1, 2 and 3). Animals were assigned to groups such that mean body weights were within 10% of the mean vehicle control group. Test articles were administered either orally (10 ml of corn oil/kg body weight) or by intra-peritoneal injection (5 ml of saline/kg body weight), as indicated. Animals were dosed once daily starting on day 0, and necropsied 24 hrs after the last dose, as indicated. An equivalent number of time- and vehicle-matched control rats were treated concurrently.
Briefly, liver samples from 3 rats were chosen from each treatment and control group for gene expression analysis on the Codelink Uniset™ Rat 1 Bioarray (GE Healthcare Bio-Sciences Corp., Piscataway, N.J.). A complete list of probes on the array is provided on the Amersham Biosciences web site (www.amershambiosciences.com). Log transformed signal data for all probes were array-wise normalized used Array Qualifier (Novation Biosciences, Palo Alto, Calif.), a non-linear centralization normalization procedure adapted for the CodeLink microarray platform. Log10 ratios for each experimental group are computed as the difference between the average of the logs of the normalized experimental signals and the average of the logs of the normalized control signals for each gene.
where S is the scalar product and b is the bias term. Evaluation of S for a test experiment across the n genes in the signature determines what side of the hyperplane in m dimensional space the test experiment lies, and thus the result of the classification. Experiments with scalar products greater than 0 are considered positive for non-genotoxic hepatocarcinogenicity.

[1] = male, Sprague-Dawley, rat, in vivo
[2] = maximum of days 1, 3, 5, greater than zero = classified non-genotoxic hepatocarcinogen

CCOC(=O)n1ccn(C)c1=S [CARBIMAZOLE]
Max (maximum scalar product observed over the multiple time points) [1]: −0.38

COc1ccc(C(CN(C)C)C2(O)CCCCC2)cc1 (stereo not drawn) [VENLAFAXINE]
Max (maximum scalar product observed over the multiple time points) [2]: −0.95

C[C@]12C/C(=C/O)C(=O)C[C@@H]1CC[C@@H]1[C@@H]2CC[C@@]2(C)[C@H]1CC[C@]2(C)O [OXYMETHOLONE]
Max (maximum scalar product observed over the multiple time points) [2]: −0.36

CC(O)CO (stereo not drawn) [propylene glycol, reference compound]
Max (maximum scalar product observed over the multiple time points) [1]: −0.80
signature prediction for non-genotoxic hepatocarcinogenicity (rat, in vivo): negative

CN1C(=O)CN=C(c2ccccc2)c2cc(Cl)ccc21 [DIAZEPAM]
Day 1 (scalar product) (male, rat, in vivo): −1.40
Day 3 (scalar product) (male, rat, in vivo): −0.06
Day 5 (scalar product) (male, rat, in vivo): 0.52
Max (maximum scalar product observed over the multiple time points) (male, rat, in vivo): 0.52

O=C(c1ccc(OCCN2CCCCC2)cc1)c1c(-c2ccc(O)cc2)sc2cc(O)ccc12 [RALOXIFENE, reference compound]
Max (maximum scalar product) (female, Sprague-Dawley, rat, in vivo): −0.66
Day 1 (scalar product) (female, Sprague-Dawley, rat, in vivo, 1 day): −0.66
Day 3 (scalar product) (female, Sprague-Dawley, rat, in vivo, 3 days): −1.25
Day 5 (scalar product) (female, Sprague-Dawley, rat, in vivo, 5 days): −2.11

CC(C)=CCC/C(C)=C/CO [GERANIOL]
Max (maximum scalar product observed over the multiple time points) [2]: −0.30

CN(C)CCCC1(c2ccc(F)cc2)OCc2cc(C#N)ccc21 (stereo not drawn) [CITALOPRAM]
Max (maximum scalar product observed over the multiple time points) [1]: −0.28

Nc1ccn([C@@H]2O[C@H](CO)[C@@H](O)[C@@H]2O)c(=O)n1 [CYTARABINE]
Max (maximum scalar product observed over the multiple time points) [1]: −0.71

C=C1CC[C@H](O)C/C1=C/C=C1\CCC[C@]2(C)[C@@H]([C@H](C)CCCC(C)C)CC[C@@H]12 [CHOLECALCIFEROL]
Max (maximum scalar product observed over the multiple time points) [2]: −1.38

CCC1=C[C@@H]2CN(C1)Cc1c([nH]c3ccccc13)[C@@](C(=O)OC)(c1cc3c(cc1OC)N(C)[C@H]1[C@@](O)(C(=O)OC)[C@H](OC(C)=O)[C@]4(CC)C=CCN5CC[C@]31[C@@H]54)C2 [VINORELBINE]
Max (maximum scalar product observed over the multiple time points) [1]: −1.37

CCN(CC)CCOc1ccc(C(=C(Cl)c2ccccc2)c2ccccc2)cc1 [CLOMIPHENE]
Max (maximum scalar product observed over the multiple time points) [1]: −1.71

O=C1Nc2ccc(Cl)cc2C(c2ccccc2Cl)=NC1O (stereo not drawn) [LORAZEPAM]
Max (maximum scalar product observed over the multiple time points) [2]: 0.10

Cc1ccnc2c1NC(=O)c1cccnc1N2C1CC1 [NEVIRAPINE]
Max (maximum scalar product observed over the multiple time points) [1]: −0.38

Clc1ccc2c(c1)C(N1CCNCC1)=Nc1ccccc1O2 [AMOXAPINE]
Max (maximum scalar product observed over the multiple time points) [1]: −1.00

CC(C)(C)NC(=O)[C@H]1CC[C@H]2[C@@H]3CC[C@H]4NC(=O)C=C[C@]4(C)[C@H]3CC[C@]12C [FINASTERIDE]
Max (maximum scalar product observed over the multiple time points) [1]: 0.22

CN(C)CCCN1c2ccccc2CCc2ccc(Cl)cc21 [CLOMIPRAMINE]
Max (maximum scalar product observed over the multiple time points) [1]: −1.46

CC[C@H]1OC(=O)[C@H](C)[C@@H](O[C@H]2C[C@@](C)(OC)[C@@H](O)[C@H](C)O2)[C@H](C)[C@@H](O[C@@H]2O[C@H](C)C[C@H](N(C)C)[C@H]2O)[C@](C)(O)C[C@@H](C)C(=O)[C@H](C)[C@@H](O)[C@]1(C)O [ERYTHROMYCIN]
Max (maximum scalar product observed over the multiple time points) [1]: −1.18

C[C@]12CC[C@@H]3c4ccc(OC(=O)c5ccccc5)cc4CC[C@H]3[C@@H]1CC[C@@H]2O [BETA-ESTRADIOL 3-BENZOATE]
Day 1 (scalar product) (Female, 37 gene signature, day 1): 0.81
Day 3 (scalar product) (Female, 37 gene signature, day 3): 0.25
Day 5 (scalar product) (Female, 37 gene signature, day 5): 0.03
Max (maximum scalar product) (Female, maximum of days 1, 3, 5): 0.81

CC(C)(Oc1ccc(Cl)cc1)C(=O)O [CLOFIBRIC ACID]
Max (maximum scalar product observed over the multiple time points) [1]: 0.86

Reference: patent publication US20100021885A1, “REAGENT SETS AND GENE SIGNATURES FOR NON-GENOTOXIC HEPATOCARCINOGENICITY” (priority 2006, published 2010)
